Data reported in paper PMC6458850, “CXXC5 mediates growth plate senescence and is a target for enhancement of longitudinal bone growth” (Life Science Alliance, 2019).

Tested on: C28/I2 cells
Assay: CXXC5/β-catenin expression and chondrogenic markers in C28/I2 cells
Assay type: cell-based, human
Procedure: Figure 2. The effects of estrogen on CXXC5 expression and the mediation of growth plate senescence. (A) Immunoblotting (upper) and quantitative analyses (mean ± SEM, n = 3) (lower) in C28/I2 cells treated with 100 nM E2 (17β-estradiol) for 0, 1, 3, 6, 24, 48, or 72 h. (B) Immunocytochemical staining (left) and quantitative analyses of the fluorescent intensity (mean ± SEM, n = 3; t test, **P < 0.005 and ***P < 0.0005) (right) in C28/I2 cells treated with 100 nM E2 for 40 h. Scale bars, 100 μm. (C–E) Tibial organ cultures (E15.5) incubated with 100 nM E2 for 6 d. Representative images at 6 d (C, left) and quantitative analyses of the growth changes (mean ± SEM, n = 5; t test, ***P < 0.0005) (C, right). Scale bar, 1 mm. H&E staining (D, left) and quantification of each zone height (mean ± SEM, n = 5; t test, *P < 0.05 and **P < 0.005) (D, right) in the growth plate. Scale bar, 200 μm. IHC analyses of β-catenin and CXXC5 (E). Scale bars, 50 μm. (F) 3-wk-old Cxxc5^+/+ and Cxxc5^−/− mice were treated with E2 cypionate (70 μg/kg) by i.m. injection once a week for 3 wk (n = 3–4). Representative images of H&E staining and IHC analyses for BrdU, β-catenin, and CXXC5 in the growth plates of proximal tibiae are shown. The area within the dashed lines indicates the growth plate zone. Black and white scale bars, 50 μm. Yellow scale bar, 20 μm. RZ, resting zone; PZ, proliferative zone; HZ, hypertrophic zone.
Figure S7. The effects of KY19382 on chondrocyte proliferation and differentiation. (A) ATDC5 cells treated with 0.01 or 0.1 μM concentrations of KY19382 were incubated for 48 h followed by treatment with 50 μM BrdU for 12 h before harvesting. BrdU incorporation was visualized by immunofluorescent staining using a specific BrdU antibody (left). BrdU-positive cells were quantified (mean ± SEM, n = 3; ANOVA, P = 7.8 × 10^−5; Tukey’s post-hoc test, *P < 0.05 and ***P < 0.0005) (right). Scale bar, 100 μm. (B) qRT-PCR analyses of mRNA levels of chondrogenic differentiation markers in ATDC5 cells incubated with 0.1 μM KY19382 for 3 d in three-dimensional alginate beads after transfection with control siRNA or Ctnnb1 siRNA (mean ± SEM, n = 3; t test, *P < 0.05, **P < 0.005, and ***P < 0.0005). (C) qRT-PCR analyses of mRNA levels of chondrogenic differentiation markers in C28/I2 cells incubated with 1 μM KY19382 for 3 d in three-dimensional alginate beads (mean ± SEM, n = 3; t test, *P < 0.05 and ***P < 0.0005). n.s., no significance.
The mouse chondrogenic cell line, ATDC5, was obtained from the RIKEN Cell Bank. The human juvenile costal chondrocyte cell line, C28/I2, was provided by Dr. W U Kim (Catholic University, Korea). HEK293-TOP cells (HEK293 cells containing the chromosomally incorporated TOPFlash gene) were provided by Dr. S Oh (Kuk Min University, Korea). […]

For `C[C@]12CC[C@@H]3c4ccc(O)cc4CC[C@H]3[C@@H]1CC[C@@H]2O` [E2, 17β-estradiol], the “time of maximal CXXC5 level” value (100 nM) was 24 h, the CXXC5 expression (100 nM, 0-72 h) was “induced” and the β-catenin level (100 nM, after 24 h) was “reduced”.

With `CON=C1C(=C2C(=O)Nc3cc(Cl)c(Cl)cc32)Nc2ccccc21` [KY19382, 5,6-dichloroindirubin-3′-methoxime] the “mRNA levels of chondrogenic markers” value (1 μM, 3 d, alginate beads) was “up-regulated”.
